# What was measured:
# [1] = test system: female mosquitoes (Aedes aegypti); experiment: Mosquitoes feeding test (Plexiglas module, treated membrane over dyed sucrose/ATP solution); type: in vivo; settings: feeding relative to control, FIGS. 1 and 3
# Protocol: (§1) The test was conducted at 0900-2100 hours in a walk-in incubator (26° C., 63-80% RH) illuminated by fluorescent lights. Mosquitoes were tested in a two-piece Plexiglas module designed to assess their response to feeding deterrents. The bottom piece of the module was 40×7×4-cm hollow platform supporting six circular wells (diameter=3.8 cm, depth=6 mm). Water (40° C.) flowed through the central cavity of the platform at a rate of 215 ml/min. The top piece of the module consisted of six 4.5×4.0×5.0 cm chambers, the floors of which were fitted with a sliding door positioned over a circular opening 3.5 cm in diameter. Mosquitoes were introduced through an aperture 1 cm in diameter on the front wall of the chambers. For each test, five female mosquitoes (Aedes aegypti) were aspirated into each of five chambers of the top module piece and the apertures were plugged with corks wrapped in plastic film. The wells on the bottom piece of the module were filled with 7 ml of 10% sucrose solution containing ATP (2.9 mg/ml). To each well, 75 μl of green dye (McCormick Food, Hunt Valley, Md.) were added so that those mosquitoes imbibing the sugar solution could be identified when crushed at the end of the tests. Each membrane received 50 ul of acetone or experimental compound solution, applied to 9.6 cm^2 circular area on 0.1 mm-thick membranes made of nylon mesh in a silicone matrix. The membranes were then placed over each well in contact with the sugar solution.
# (§2) The circular openings on the floor of each chamber of the top piece of the module were aligned with each membrane-covered well of the bottom piece. The sliding floors of the chambers were then opened allowing mosquitoes access to the membranes. The number of mosquitoes landing on the membranes, and those flying within the apparatus, were recorded each minute for five minutes. After five minutes, any mosquitoes remaining on the membranes were removed with a metal wire, and the door of the floor of each chamber was closed. The top piece of the module was then placed into a freezer for 20 minutes. In the test designed to assess feeding, mosquitoes were removed from the frozen module, crushed on white paper towels, and examined for the presence of green dye to indicate that feeding had occurred. The proportions of mosquitoes feeding per trial were analyzed using a standard generalized linear model with a logit link. Landing and flying scores are repeated measures; five reading were obtained for groups of five mosquitoes. Thus, to maintain independence among the data, the five readings were summed, and then the sums divided by 25 (the maximum score in each category) to create proportions of mosquitoes landing and flying. The proportions were then transferred using the standard variance stabilizing transformation for proportions (sin^−1 √y, where y is the proportion), and analyzed using ANOVA (Analysis of Variables)
# In Table 1, weight percent (wt %) refers to the weight of the deterring/repelling/inhibiting compound, or combination of compounds, in the composition used in the tests. […] The weight ratio of the compounds in the combination of compounds is given in parentheses in the “Compound(s)” column of Table 1.
# [2] = test system: female mosquitoes (Aedes aegypti); experiment: Mosquitoes flying test (Plexiglas module, mosquitoes flying within the apparatus); type: in vivo; settings: flying relative to control, FIGS. 2 and 4
# Protocol: as §1, §2
# In Table 2, weight percent (wt %) refers to the weight of the deterring/repelling/inhibiting compound, or combination of compounds, in the composition used in the tests. […] The weight ratio of the compounds in the combination of compounds is given in parentheses in the “Compound(s)” column of Table 2.
# [3] = test system: mosquitoes and biting midges; settings: related art; cited from earlier work
# [4] = test system: mosquitoes; experiment: Limonene tested against mosquitoes (background); type: in vivo; settings: background statement
# [5] = test system: mosquitoes; experiment: Spatial inhibition of mosquitoes, outdoor Mosquito Magnet Liberty Plus trap catch; type: in vivo; settings: two grams of test compound on absorbent material in CO2 and r-octenol stream of trap; 2-5 days; FIG. 5
# Protocol: Two grams of test compound was absorbed onto pieces of absorbent material. These pieces of absorbent material (fragrance release material from Rhopore Inc.) containing absorbed test compound were then placed in a stream of CO2 and r-octenol being released from an American Biophysics Mosquito Magnet Liberty Plus mosquito trap designed to attract mosquitoes. The test were rotated over a period of 2-5 days in such a manner that both control (trap without test compound) and test compound were tested an equal number of times in each trap employed. The number of mosquitoes caught in the traps with test compounds was compared to the number of mosquitoes caught in the trap with no test compound material present. […] Thus, a lowered percentage is indicative of the increasing ability of the test compounds to inhibit the ability of the mosquitoes sense the target. […] In Table 3, weight percent (wt %) refers to the weight of the deterring/repelling/inhibiting compound, or combination of compounds, in the composition used in the tests. In the “Percent Caught Relative to Control” column in Table 3, a lower percentage is indicative of the increasing ability of the test compounds to inhibit the ability of the mosquitoes sense the target. The weight ratio of the compounds in the combination of compounds is given in parentheses in the “Compound(s)” column of Table 3.
compound,measurement,setting,value
(+)/(−) limonene oxide,"contact mosquito repellent activity (feeding tests, FIGS. 1 and 3), in words",[1],especially effective as contact mosquito repellents
same,"spatial inhibitor activity for mosquitoes (flying tests, FIGS. 2 and 4), in words",[2],particularly effective as spatial inhibitors for mosquitoes
C=CC(C)(O)CCC=C(C)C (stereo not drawn) [linalool],"spatial inhibitor efficacy, in words",[3],act as spatial inhibitors
C=C(C)C1CC=C(C)CC1 (stereo not drawn) [limonene],"repellent or spatial inhibitor efficacy against mosquitoes, in words",[4],not found to be either an effective repellent or spatial inhibitor
cis and trans carveol,"contact mosquito repellent activity (feeding tests, FIGS. 1 and 3), in words",[1],especially effective as contact mosquito repellents
same,percent mosquitoes caught relative to the control (relative catch),[5],about 43%

# Source: patent US20210029993A1, “SPATIAL INHIBITORS, DETERRENTS AND REPELLENTS FOR MOSQUITOES AND MIDGES” (BEDOUKIAN RESEARCH, INC., priority 2005, published 2021)
